From paper PMC6478789, “A chemical toolbox for the study of bromodomains and epigenetic signaling” (Nature Communications, 2019)

Legend:
[1] = target: BRD3(2) (Homo sapiens, UniProt Q15059); test: BROMOscan ligand-binding assay; conditions: read-out: KD (BROMOscan); sheet prints no unit (nM)
Description: (§1) BROMOscan is a binding assay based on the well-known KINOMEscan technology. This assay measures the binding of a DNA-tagged bromodomain to an immobilized BRD ligand. If an inhibitor is present, it will compete with the bromodomain binding to the immobilized ligand, resulting in reduction of a quantitative PCR (qPCR) signal in a dose-dependent manner.

[2] = tested on: MDA-MB-436 cells; test: Confluency with BRPF inhibitors and BAY-876; type: cell-based, human; conditions: 3 μM, 7 days
Description: Graph indicates mean, error bars denote s.d. from eight wells (from two independent assays) and p-value was computed using the Benjamini-Hochberg t test; ***p < 0.001. d Immunoblot validation of BRPF knockdown in MDA-MB-436 cells. e Quantitative real-time PCR (RT-qPCR) validation of BRPF knockdown in MDA-MB-436 cells. […] Raw data images are available in Supplementary Fig. 4
TNBC cell lines were seeded in sterile, transparent 384-well plates at 500 cells per well in 50 µl media. Chemical probes were delivered in dimethyl sulfoxide (DMSO). Cell confluency at 7 days was evaluated using an Incucyte ZOOM live cell imaging device (Essen Bioscence) and analyzed with the Incucyte ZOOM (2016A) software based on phase contrast image.

[3] = target: BRD4(2) (Homo sapiens, UniProt O60885); test: BROMOscan ligand-binding assay; conditions: read-out: KD (BROMOscan); sheet prints no unit (nM)
Description: as §1

[4] = target: T1, MYST1 (Homo sapiens, UniProt Q9H7Z6); test: Histone acetyltransferase (HAT) activity assay; type: biochemical;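 further: selectivity screen across a panel of histone acetyltransferases, with compounds tested at 1 and 10 µM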
T1 sequence (Q9H7Z6 1-458): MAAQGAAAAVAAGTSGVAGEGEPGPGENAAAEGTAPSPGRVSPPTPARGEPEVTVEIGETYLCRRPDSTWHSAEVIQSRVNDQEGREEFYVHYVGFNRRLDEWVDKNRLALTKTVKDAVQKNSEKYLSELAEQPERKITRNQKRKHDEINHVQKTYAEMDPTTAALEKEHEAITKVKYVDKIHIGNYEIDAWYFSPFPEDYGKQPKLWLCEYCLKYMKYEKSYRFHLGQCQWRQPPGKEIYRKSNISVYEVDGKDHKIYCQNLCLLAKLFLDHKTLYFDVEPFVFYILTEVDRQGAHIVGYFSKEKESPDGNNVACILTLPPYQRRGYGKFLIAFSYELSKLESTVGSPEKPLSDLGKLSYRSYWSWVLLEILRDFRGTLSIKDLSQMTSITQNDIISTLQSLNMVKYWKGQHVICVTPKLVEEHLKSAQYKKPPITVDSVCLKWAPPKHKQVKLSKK

[5] = target: T2, BAZ2B (Homo sapiens, UniProt Q9UIF8); test: BROMOscan ligand-binding assay; conditions: read-out: KD (BROMOscan); sheet prints no unit (nM)
T2 sequence (Q9UIF8 2060-2164 limits assumed): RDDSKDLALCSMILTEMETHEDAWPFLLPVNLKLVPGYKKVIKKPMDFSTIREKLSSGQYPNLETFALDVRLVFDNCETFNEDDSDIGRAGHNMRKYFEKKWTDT
Description: as §1

[6] = target: BRD2(1) (Homo sapiens, UniProt P25440); test: BROMOscan ligand-binding assay; conditions: read-out: KD (BROMOscan); sheet prints no unit (nM)
Description: as §1

[7] = target: T3, ATAD2B (Homo sapiens, UniProt Q9ULI0); test: BROMOscan ligand-binding assay; conditions: read-out: KD (BROMOscan); sheet prints no unit (nM)
T3 sequence (Q9ULI0 951-1066 limits assumed): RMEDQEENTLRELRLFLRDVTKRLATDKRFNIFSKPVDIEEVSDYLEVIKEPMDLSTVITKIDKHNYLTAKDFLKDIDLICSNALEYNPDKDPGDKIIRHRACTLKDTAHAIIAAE
Description: as §1

[8] = target: BRPF2; conditions: ITC data; ref 11 (suppl.); cited from earlier work
[9] = target: BRD2(2) (Homo sapiens, UniProt P25440); test: BROMOscan ligand-binding assay; conditions: read-out: KD (BROMOscan); sheet prints no unit (nM)
Description: as §1

[10] = target: MYST3 (Homo sapiens, UniProt Q92794); test: Histone acetyltransferase (HAT) activity assay; type: biochemical;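 further: selectivity screen of bromodomain probe compounds across a panel of histone acetyltransferases, read out as enzyme activity in %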
[11] = target: EP300 (Homo sapiens, UniProt Q09472); test: Histone acetyltransferase (HAT) activity assay; type: biochemical;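 further: selectivity screen of bromodomain probe compounds against histone acetyltransferases, with enzyme activity given in percent for compounds tested at 1 and 10 µM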
[12] = target: BRD4(1) (Homo sapiens, UniProt O60885); test: BROMOscan ligand-binding assay; conditions: read-out: KD (BROMOscan); sheet prints no unit (nM)
Description: as §1

[13] = target: GCN5L2 (Homo sapiens, UniProt Q92830); test: Histone acetyltransferase (HAT) activity assay; type: biochemical;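 further: selectivity screen of BRD probe compounds across a panel of histone acetyltransferases, HAT activity in % with compound at 1 or 10 µM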
[14] = target: BRD3(1) (Homo sapiens, UniProt Q15059); test: BROMOscan ligand-binding assay; conditions: read-out: KD (BROMOscan); sheet prints no unit (nM)
Description: as §1

[15] = target: BRPF1B; conditions: ITC data; ref 11 (suppl.); cited from earlier work
[16] = target: BRD9; conditions: ITC data; ref 11 (suppl.); read-out: KD (nM), off target BRD9; cited from earlier work
[17] = target: BRD3(1,2) (Homo sapiens, UniProt Q15059); test: BROMOscan ligand-binding assay; conditions: read-out: KD (BROMOscan); sheet prints no unit (nM)
Description: as §1

[18] = target: BRD2(1,2) (Homo sapiens, UniProt P25440); test: BROMOscan ligand-binding assay; conditions: read-out: KD (BROMOscan); sheet prints no unit (nM)
Description: as §1

[19] = target: T4, HAT1 (Homo sapiens, UniProt O14929); test: Histone acetyltransferase (HAT) activity assay; type: biochemical;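 further: HAT selectivity screen of BRD probe compounds, enzyme activity in % measured with compound at 1 µM and 10 µM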
T4 sequence (O14929 1-419): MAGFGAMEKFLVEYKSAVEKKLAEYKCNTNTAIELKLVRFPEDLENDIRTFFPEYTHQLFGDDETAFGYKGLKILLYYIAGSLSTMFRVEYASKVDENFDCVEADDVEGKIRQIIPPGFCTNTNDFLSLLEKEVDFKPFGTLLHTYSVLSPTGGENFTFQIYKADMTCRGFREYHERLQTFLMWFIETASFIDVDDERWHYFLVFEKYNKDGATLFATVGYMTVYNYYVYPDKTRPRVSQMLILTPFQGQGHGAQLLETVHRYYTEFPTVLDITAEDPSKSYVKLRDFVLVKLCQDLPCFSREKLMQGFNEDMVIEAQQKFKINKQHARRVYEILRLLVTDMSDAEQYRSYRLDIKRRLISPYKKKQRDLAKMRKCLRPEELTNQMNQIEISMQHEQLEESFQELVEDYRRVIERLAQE

[20] = target: BRD4(1,2) (Homo sapiens, UniProt O60885); test: BROMOscan ligand-binding assay; conditions: read-out: KD (BROMOscan); sheet prints no unit (nM)
Description: as §1

[21] = target: T5, ATAD2A (Homo sapiens, UniProt Q6PL18); test: BROMOscan ligand-binding assay; conditions: read-out: KD (BROMOscan); sheet prints no unit (nM)
T5 sequence (Q6PL18 980-1092 limits assumed): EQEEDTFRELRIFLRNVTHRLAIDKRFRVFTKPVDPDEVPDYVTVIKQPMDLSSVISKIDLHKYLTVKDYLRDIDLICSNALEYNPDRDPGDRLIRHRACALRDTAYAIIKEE
Description: as §1

[22] = target: T6, BRD1 (Homo sapiens, UniProt O95696); test: BROMOscan ligand-binding assay; conditions: read-out: KD (BROMOscan); sheet prints no unit (nM)
T6 sequence (O95696 562-666 limits assumed): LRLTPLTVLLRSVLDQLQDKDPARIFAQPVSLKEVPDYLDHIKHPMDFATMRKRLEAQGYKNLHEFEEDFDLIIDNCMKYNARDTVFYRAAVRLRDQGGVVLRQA
Description: as §1

[23] = target: T7, TAF1(2) (Homo sapiens, UniProt P21675); test: BROMOscan ligand-binding assay; conditions: read-out: KD (BROMOscan); sheet prints no unit (nM)
T7 sequence (P21675 1519-1628 limits assumed): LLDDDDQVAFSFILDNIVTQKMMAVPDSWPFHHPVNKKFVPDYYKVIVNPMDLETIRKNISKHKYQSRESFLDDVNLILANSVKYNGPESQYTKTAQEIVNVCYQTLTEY
Description: as §1

EP300, sequence (Q09472 whole entry, species assumed): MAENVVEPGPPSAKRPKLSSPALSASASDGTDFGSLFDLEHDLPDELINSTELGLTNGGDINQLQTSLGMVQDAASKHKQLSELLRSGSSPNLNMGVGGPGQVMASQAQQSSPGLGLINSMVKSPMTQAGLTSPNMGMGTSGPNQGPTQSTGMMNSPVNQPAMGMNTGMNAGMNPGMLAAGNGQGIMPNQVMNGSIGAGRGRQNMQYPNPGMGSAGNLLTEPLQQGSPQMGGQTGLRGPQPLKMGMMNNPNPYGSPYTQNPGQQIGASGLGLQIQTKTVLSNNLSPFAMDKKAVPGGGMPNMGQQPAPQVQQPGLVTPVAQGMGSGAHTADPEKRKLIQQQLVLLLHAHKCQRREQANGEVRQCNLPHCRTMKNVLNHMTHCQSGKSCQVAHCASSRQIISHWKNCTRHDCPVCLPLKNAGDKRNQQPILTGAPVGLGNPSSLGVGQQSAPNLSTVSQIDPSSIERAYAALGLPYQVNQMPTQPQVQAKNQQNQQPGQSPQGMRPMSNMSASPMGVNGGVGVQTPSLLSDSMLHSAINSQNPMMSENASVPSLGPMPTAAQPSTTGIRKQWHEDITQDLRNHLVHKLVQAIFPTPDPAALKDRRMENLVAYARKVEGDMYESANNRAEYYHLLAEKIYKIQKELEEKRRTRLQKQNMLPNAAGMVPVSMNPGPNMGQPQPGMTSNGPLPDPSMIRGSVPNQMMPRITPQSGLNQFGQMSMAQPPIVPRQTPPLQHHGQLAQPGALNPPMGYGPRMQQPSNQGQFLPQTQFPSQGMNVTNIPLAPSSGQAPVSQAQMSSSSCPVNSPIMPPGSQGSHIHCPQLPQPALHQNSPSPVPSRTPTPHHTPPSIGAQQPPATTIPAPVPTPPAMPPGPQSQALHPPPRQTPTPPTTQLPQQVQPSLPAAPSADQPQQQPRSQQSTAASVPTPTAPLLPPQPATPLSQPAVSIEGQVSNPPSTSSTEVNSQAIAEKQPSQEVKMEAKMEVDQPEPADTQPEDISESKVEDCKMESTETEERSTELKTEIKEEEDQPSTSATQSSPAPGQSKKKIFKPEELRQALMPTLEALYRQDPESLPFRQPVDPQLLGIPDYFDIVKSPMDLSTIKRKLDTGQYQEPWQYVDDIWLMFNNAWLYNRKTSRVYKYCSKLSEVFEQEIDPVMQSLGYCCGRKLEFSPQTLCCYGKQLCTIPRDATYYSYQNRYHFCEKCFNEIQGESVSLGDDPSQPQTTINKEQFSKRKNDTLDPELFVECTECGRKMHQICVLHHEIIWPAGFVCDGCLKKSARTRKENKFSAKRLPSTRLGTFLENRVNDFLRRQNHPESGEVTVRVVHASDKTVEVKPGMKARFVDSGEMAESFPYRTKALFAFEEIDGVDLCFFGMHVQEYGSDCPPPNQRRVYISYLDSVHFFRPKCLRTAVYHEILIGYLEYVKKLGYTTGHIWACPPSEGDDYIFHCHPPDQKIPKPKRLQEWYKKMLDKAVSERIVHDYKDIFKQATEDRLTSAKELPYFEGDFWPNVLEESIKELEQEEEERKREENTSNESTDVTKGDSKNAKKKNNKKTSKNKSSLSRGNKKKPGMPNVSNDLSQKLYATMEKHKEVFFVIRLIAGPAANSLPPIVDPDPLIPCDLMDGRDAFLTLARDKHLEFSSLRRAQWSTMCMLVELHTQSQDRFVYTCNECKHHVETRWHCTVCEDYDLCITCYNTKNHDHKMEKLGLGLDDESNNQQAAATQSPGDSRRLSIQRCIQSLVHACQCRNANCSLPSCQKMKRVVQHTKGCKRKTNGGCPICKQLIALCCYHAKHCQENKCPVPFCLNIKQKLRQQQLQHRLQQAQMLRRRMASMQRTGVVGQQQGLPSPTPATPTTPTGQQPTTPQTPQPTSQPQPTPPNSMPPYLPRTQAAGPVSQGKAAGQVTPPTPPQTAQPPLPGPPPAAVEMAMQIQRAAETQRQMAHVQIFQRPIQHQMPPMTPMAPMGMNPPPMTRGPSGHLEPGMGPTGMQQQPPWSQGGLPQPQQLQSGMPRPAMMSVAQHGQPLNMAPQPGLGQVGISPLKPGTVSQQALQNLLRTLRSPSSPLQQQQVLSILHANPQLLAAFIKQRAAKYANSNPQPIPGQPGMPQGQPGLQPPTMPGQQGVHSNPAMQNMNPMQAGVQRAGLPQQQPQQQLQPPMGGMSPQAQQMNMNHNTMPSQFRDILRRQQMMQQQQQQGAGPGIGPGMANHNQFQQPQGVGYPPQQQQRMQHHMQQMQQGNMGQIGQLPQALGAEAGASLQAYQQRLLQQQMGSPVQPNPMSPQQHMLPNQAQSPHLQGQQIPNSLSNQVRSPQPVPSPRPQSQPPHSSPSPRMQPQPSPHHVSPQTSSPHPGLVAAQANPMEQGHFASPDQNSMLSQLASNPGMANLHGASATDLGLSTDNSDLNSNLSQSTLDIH
MYST3, sequence (Q92794 whole entry, species assumed): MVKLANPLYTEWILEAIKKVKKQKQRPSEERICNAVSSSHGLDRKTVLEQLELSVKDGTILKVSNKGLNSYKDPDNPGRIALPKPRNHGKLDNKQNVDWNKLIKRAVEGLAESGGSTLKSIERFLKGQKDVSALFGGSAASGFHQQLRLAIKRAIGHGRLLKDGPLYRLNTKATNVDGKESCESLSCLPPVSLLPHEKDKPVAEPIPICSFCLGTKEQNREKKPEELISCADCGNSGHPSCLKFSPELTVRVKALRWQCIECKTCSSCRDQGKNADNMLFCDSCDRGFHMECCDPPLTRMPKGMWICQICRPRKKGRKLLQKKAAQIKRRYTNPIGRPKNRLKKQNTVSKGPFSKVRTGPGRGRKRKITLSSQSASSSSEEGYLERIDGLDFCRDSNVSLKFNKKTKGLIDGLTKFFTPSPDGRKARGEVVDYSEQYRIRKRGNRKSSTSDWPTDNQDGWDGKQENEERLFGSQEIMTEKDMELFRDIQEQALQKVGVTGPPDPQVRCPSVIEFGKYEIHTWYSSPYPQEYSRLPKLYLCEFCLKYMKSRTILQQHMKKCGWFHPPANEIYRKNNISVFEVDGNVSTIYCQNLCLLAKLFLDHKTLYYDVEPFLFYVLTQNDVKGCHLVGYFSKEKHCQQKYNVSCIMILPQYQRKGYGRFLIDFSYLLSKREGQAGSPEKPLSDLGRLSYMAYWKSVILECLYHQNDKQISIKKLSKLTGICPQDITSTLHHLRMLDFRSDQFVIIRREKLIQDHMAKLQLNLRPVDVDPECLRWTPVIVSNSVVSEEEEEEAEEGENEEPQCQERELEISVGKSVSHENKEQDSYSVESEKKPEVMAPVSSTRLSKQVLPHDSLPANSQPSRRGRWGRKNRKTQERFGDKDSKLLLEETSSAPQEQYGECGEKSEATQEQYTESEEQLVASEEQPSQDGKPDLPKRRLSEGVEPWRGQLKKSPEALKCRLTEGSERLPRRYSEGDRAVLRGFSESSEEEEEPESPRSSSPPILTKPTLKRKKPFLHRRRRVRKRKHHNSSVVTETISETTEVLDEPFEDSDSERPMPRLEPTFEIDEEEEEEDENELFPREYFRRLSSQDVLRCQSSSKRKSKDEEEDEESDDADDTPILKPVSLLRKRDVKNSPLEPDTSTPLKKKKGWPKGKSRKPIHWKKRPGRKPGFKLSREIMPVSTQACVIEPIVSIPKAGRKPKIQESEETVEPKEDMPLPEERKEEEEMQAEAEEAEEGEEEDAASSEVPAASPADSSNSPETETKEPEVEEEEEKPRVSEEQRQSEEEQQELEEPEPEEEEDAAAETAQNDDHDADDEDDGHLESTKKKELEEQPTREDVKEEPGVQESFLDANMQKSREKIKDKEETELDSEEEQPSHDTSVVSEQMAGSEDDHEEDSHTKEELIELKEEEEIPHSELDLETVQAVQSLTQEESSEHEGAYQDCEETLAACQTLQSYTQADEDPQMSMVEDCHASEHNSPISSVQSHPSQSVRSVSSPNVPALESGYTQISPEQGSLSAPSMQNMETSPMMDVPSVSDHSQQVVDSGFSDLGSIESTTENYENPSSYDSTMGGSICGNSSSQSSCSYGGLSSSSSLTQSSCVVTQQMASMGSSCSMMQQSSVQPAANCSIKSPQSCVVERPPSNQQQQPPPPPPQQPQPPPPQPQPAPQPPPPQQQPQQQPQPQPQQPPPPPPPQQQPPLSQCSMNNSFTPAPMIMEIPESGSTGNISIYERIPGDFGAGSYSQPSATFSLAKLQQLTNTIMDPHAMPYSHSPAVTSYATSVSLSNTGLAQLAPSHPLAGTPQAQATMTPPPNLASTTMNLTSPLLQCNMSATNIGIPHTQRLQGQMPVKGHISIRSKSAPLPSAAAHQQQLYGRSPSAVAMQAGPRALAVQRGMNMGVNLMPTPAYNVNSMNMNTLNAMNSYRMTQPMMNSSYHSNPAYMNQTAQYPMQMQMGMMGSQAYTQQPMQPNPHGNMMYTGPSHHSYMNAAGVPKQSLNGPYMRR
BRD3(2), sequence (Q15059 306-415 limits assumed): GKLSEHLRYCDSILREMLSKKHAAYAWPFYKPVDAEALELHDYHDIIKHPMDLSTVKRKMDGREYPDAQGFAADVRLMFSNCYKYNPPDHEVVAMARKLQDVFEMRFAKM
BRD2(1), sequence (P25440 74-180 limits assumed): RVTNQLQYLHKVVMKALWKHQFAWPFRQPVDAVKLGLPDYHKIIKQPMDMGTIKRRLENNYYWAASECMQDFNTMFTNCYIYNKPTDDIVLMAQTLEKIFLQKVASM
BRD3(1,2), sequence (Q15059 24-416 limits assumed): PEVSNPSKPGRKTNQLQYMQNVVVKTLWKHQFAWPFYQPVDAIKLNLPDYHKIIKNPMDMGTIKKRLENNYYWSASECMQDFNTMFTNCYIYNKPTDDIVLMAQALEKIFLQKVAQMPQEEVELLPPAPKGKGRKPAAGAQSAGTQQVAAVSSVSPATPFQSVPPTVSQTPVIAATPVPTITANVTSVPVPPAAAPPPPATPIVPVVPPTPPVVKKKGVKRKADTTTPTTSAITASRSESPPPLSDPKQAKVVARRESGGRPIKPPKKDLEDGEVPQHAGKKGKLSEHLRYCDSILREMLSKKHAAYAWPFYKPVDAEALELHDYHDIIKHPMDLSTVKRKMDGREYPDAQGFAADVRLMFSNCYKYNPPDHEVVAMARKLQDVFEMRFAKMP

- Kd [1]: > 30000 nM
- Kd [3]: > 30000 nM
- HATs Activity (%) ([4]; 1µM): 96%
- HATs Activity (%) ([4]; 10µM): 91%
- Kd [5]: 9400 nM
- Kd [6]: 5900 nM
- Kd [7]: > 30000 nM
- Kd [9]: > 30000 nM
- HATs Activity (%) ([10]; 1µM): 98%
- HATs Activity (%) ([10]; 10µM): 99%
- HATs Activity (%) ([11]; 1µM): 94%
- HATs Activity (%) ([11]; 10µM): 93%
- Kd [12]: 3300 nM
- HATs Activity (%) ([13]; 1µM): 100%
- HATs Activity (%) ([13]; 10µM): 96%
- Kd [14]: 7200 nM
- Kd [17]: 12000 nM
- Kd [18]: 12000 nM
- HATs Activity (%) ([19]; 1µM): 104%
- HATs Activity (%) ([19]; 10µM): 104%
- Kd [20]: 15000 nM
- Kd [21]: > 30000 nM
- Kd [22]: 46 nM
- Kd [23]: 4900 nM
SMILES: COc1cc(C#N)ccc1S(=O)(=O)Nc1ccc2c(c1)cc(C)c(=O)n2C [NIC57]
- synergy with BAY-876 [2]: no synergy
- Kd [8]: 108 nM
- Kd [15]: 31 nM
- Kd [16]: 998 nM
